Tests used:
[1] = biological target: Serine/threonine-protein kinase N2 (Homo sapiens) (UniProt Q16513); assay: Inhibition of human PRK2 (501 to 984 residues) assessed as remaining enzyme activity at 50 uM after 30 mins by 33P-ATP filter-binding assay
[2] = biological target: Ephrin type-B receptor 2 (Homo sapiens) (UniProt P29323); assay: Inhibition of human EPHB2 (560 to 987 residues) assessed as remaining enzyme activity at 50 uM after 30 mins by 33P-ATP filter-binding assay
[3] = biological target: Serine/threonine-protein kinase TAO1 (Homo sapiens) (UniProt Q7L7X3); assay: Inhibition of human TAO1 (1 to 356 residues) assessed as remaining enzyme activity at 50 uM after 30 mins by 33P-ATP filter-binding assay
[4] = biological target: Dual specificity testis-specific protein kinase 1 (Homo sapiens) (UniProt Q15569); assay: Inhibition of human TESK1 (1 to 345 residues) assessed as remaining enzyme activity at 50 uM after 30 mins by 33P-ATP filter-binding assay
[5] = biological target: Serine/threonine-protein kinase 16 (Homo sapiens) (UniProt O75716); assay: Inhibition of human MPSK1 (1 to 305 residues) assessed as remaining enzyme activity at 50 uM after 30 mins by 33P-ATP filter-binding assay
[6] = biological target: Serine/threonine-protein kinase STK11 (Homo sapiens) (UniProt Q15831); assay: Inhibition of human LKB1 (1 to 433 residues) assessed as remaining enzyme activity at 50 uM after 30 mins by 33P-ATP filter-binding assay
[7] = biological target: Insulin-like growth factor 1 receptor (Homo sapiens) (UniProt P08069); assay: Inhibition of human IGF1R (954 to 1367 residues) assessed as remaining enzyme activity at 50 uM after 30 mins by 33P-ATP filter-binding assay
[8] = Ionization constant, pKa of the compound in buffer at pH 1 to 13 by uV spectrophotometry; assay type: physicochemical
[9] = biological target: Mitogen-activated protein kinase 11 (Homo sapiens) (UniProt Q15759); assay: Inhibition of human p38beta MAPK (1 to 364 residues) assessed as remaining enzyme activity at 50 uM after 30 mins by 33P-ATP filter-binding assay
[10] = biological target: Receptor-interacting serine/threonine-protein kinase 2 (Homo sapiens) (UniProt O43353); assay: Inhibition of human RIPK2 (2 to 311 residues) assessed as remaining enzyme activity at 50 uM after 30 mins by 33P-ATP filter-binding assay
[11] = Stability in pH 4 buffer at 120 ug/ml after 8 hrs by RP-HPLC analysis; assay type: physicochemical; details: pH 4, 8 h
[12] = tested on: ASPC1; assay: Cytotoxicity against human AsPC1 cells assessed as cell growth inhibition after 48 hrs by MTT assay; assay type: functional; details: ASPC1, 48 h
[13] = biological target: SRSF protein kinase 1 (Homo sapiens) (UniProt Q96SB4); assay: Inhibition of human SRPK1 (2 to 654 residues) assessed as remaining enzyme activity at 50 uM after 30 mins by 33P-ATP filter-binding assay
[14] = biological target: Dual specificity protein kinase TTK (Homo sapiens) (UniProt P33981); assay: Inhibition of human TTK (1 to 857 residues) assessed as remaining enzyme activity at 50 uM after 30 mins by 33P-ATP filter-binding assay
[15] = biological target: Serine/threonine-protein kinase TBK1 (Homo sapiens) (UniProt Q9UHD2); assay: Inhibition of human TBK1 (1 to 729 residues) assessed as remaining enzyme activity at 50 uM after 30 mins by 33P-ATP filter-binding assay
[16] = biological target: Tau-tubulin kinase 1 (Homo sapiens) (UniProt Q5TCY1); assay: Inhibition of human TTBK1 (1 to 1321 residues) assessed as remaining enzyme activity at 50 uM after 30 mins by 33P-ATP filter-binding assay
[17] = tested on: PSN1; assay: Cytotoxicity against human PSN1 cells assessed as cell growth inhibition after 48 hrs by MTT assay; assay type: functional; details: PSN1, 48 h
[18] = biological target: Serine/threonine-protein kinase 24 (Homo sapiens) (UniProt Q9Y6E0); assay: Inhibition of human MST3 (2 to 431 residues) assessed as remaining enzyme activity at 50 uM after 30 mins by 33P-ATP filter-binding assay
[19] = biological target: CDK2/Cyclin A2 (Homo sapiens) (UniProt P24941+P20248); assay: Inhibition of human Cdk2/cyclin A assessed as remaining enzyme activity at 50 uM after 30 mins by 33P-ATP filter-binding assay; assay type: protein-complex assay
[20] = Cell cycle arrest in human HL60 cells assessed as accumulation at G1 phase at 5 uM (reference value: 59 %); assay type: functional, cell-based; details: HL-60
[21] = biological target: Tyrosine-protein kinase CSK (Homo sapiens) (UniProt P41240); assay: Inhibition of human CSK (1 to 450 residues) assessed as remaining enzyme activity at 50 uM after 30 mins by 33P-ATP filter-binding assay
[22] = Distribution coefficient, logD of the compound in water/PBS buffer at pH 7.4 at 25 degC after 20 mins by shake flask method; assay type: physicochemical
[23] = biological target: Serine/threonine-protein kinase 26 (Homo sapiens) (UniProt Q9P289); assay: Inhibition of human MST4 (2 to 416 residues) assessed as remaining enzyme activity at 50 uM after 30 mins by 33P-ATP filter-binding assay
[24] = biological target: Ephrin type-A receptor 4 (Homo sapiens) (UniProt P54764); assay: Inhibition of human EPHA4 (580 to 986 residues) assessed as remaining enzyme activity at 50 uM after 30 mins by 33P-ATP filter-binding assay
[25] = biological target: Serine/threonine-protein kinase PAK 2 (Homo sapiens) (UniProt Q13177); assay: Inhibition of human PAK2 assessed as remaining enzyme activity at 50 uM after 30 mins by 33P-ATP filter-binding assay
[26] = biological target: Homeodomain-interacting protein kinase 3 (Homo sapiens) (UniProt Q9H422); assay: Inhibition of human HIPK3 (161 to 562 residues) assessed as remaining enzyme activity at 50 uM after 30 mins by 33P-ATP filter-binding assay
[27] = biological target: Mitogen-activated protein kinase kinase kinase 1 (Homo sapiens) (UniProt Q13233); assay: Inhibition of human MEKK1 (877 to1563 residues) assessed as remaining enzyme activity at 50 uM after 30 mins by 33P-ATP filter-binding assay
[28] = biological target: MAP kinase-interacting serine/threonine-protein kinase 2 (Homo sapiens) (UniProt Q9HBH9); assay: Inhibition of human MNK2 assessed as remaining enzyme activity at 50 uM after 30 mins by 33P-ATP filter-binding assay
[29] = biological target: Calcium/calmodulin-dependent protein kinase type 1 (Homo sapiens) (UniProt Q14012); assay: Inhibition of human CAMK1 (1 to 541 residues) assessed as remaining enzyme activity at 50 uM after 30 mins by 33P-ATP filter-binding assay
[30] = Cell cycle arrest in human HL60 cells assessed as accumulation at G1 phase at 10 uM (reference value: 59 %); assay type: functional, cell-based; details: HL-60
[31] = Cytotoxicity against human MIAPaCa2 cells assessed as cell growth inhibition after 48 hrs by MTT assay; assay type: functional; details: MIA PaCa-2, 48 h

Sequence of Serine/threonine-protein kinase TBK1 (Homo sapiens) (Q9UHD2 whole entry, the tested form may be a part): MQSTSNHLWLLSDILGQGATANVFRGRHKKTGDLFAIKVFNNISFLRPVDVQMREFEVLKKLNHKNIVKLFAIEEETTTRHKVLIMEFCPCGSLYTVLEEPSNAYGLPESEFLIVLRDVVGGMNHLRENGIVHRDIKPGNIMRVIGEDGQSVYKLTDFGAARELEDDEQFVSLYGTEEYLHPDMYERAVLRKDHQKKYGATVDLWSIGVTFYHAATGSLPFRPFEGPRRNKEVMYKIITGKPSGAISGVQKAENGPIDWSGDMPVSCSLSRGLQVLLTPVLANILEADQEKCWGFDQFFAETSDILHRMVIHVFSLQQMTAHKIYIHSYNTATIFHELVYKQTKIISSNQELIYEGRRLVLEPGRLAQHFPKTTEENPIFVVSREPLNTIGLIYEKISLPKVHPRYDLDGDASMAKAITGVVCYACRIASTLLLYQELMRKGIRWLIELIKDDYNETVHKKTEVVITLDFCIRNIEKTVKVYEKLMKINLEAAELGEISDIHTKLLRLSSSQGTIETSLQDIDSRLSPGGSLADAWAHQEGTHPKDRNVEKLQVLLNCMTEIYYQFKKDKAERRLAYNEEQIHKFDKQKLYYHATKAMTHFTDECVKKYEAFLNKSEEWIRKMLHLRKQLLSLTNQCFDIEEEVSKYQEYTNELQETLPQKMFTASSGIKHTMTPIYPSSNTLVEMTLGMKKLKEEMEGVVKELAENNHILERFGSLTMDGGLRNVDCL
Sequence of Insulin-like growth factor 1 receptor (Homo sapiens) (P08069 31-736 limits assumed): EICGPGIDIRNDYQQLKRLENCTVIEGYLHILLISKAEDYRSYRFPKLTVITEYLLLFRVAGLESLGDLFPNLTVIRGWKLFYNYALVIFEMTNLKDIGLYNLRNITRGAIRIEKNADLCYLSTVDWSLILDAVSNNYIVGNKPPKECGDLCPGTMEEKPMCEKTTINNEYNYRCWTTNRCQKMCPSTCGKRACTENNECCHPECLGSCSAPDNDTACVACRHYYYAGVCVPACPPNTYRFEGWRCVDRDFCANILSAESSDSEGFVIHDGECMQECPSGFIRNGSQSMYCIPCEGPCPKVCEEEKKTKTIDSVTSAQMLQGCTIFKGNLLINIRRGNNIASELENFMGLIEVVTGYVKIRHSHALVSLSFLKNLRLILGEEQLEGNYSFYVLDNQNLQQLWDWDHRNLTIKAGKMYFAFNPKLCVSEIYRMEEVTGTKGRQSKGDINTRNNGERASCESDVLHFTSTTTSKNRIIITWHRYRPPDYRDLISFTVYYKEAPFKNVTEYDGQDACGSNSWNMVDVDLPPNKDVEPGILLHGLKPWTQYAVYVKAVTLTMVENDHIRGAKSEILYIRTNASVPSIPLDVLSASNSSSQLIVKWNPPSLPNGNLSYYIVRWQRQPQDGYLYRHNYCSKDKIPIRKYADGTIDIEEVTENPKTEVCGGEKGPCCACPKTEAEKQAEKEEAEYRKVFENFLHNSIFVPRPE
Sequence of Insulin-like growth factor 1 receptor (Homo sapiens) (P08069 741-1367 limits assumed): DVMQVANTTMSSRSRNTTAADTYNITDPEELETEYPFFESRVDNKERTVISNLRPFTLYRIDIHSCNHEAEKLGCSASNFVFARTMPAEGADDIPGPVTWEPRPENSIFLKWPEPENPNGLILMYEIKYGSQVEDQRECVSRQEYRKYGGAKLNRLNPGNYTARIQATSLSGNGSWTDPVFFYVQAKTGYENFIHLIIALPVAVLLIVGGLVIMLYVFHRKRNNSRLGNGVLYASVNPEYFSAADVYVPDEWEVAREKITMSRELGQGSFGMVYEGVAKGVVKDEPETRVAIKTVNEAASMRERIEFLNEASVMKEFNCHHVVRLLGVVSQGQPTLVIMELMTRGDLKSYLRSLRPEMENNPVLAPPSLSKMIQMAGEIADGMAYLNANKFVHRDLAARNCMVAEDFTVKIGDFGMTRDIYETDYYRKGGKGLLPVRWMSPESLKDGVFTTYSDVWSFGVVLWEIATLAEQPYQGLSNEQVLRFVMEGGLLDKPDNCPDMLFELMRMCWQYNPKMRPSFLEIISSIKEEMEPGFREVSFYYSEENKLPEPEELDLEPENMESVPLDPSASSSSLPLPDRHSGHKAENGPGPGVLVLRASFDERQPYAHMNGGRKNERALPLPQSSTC
Sequence of SRSF protein kinase 1 (Homo sapiens) (Q96SB4 whole entry, the tested form may be a part): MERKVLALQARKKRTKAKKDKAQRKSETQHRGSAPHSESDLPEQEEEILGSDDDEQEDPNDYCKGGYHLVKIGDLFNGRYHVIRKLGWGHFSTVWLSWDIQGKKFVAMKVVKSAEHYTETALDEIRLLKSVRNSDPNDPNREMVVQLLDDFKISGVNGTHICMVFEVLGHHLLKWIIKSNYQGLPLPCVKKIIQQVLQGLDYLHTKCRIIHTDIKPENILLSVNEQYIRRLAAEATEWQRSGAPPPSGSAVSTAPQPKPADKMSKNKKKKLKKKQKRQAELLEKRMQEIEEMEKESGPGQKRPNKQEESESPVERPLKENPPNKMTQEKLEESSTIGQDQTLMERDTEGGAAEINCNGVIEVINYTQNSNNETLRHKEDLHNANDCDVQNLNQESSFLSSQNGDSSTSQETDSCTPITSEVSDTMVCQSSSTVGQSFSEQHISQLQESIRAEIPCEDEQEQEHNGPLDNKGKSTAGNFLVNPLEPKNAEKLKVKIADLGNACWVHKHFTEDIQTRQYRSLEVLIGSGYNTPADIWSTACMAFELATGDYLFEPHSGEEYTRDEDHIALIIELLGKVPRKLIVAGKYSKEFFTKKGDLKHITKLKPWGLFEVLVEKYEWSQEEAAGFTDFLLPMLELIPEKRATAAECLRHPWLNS
Sequence of Serine/threonine-protein kinase 26 (Homo sapiens) (Q9P289 2-416 limits assumed): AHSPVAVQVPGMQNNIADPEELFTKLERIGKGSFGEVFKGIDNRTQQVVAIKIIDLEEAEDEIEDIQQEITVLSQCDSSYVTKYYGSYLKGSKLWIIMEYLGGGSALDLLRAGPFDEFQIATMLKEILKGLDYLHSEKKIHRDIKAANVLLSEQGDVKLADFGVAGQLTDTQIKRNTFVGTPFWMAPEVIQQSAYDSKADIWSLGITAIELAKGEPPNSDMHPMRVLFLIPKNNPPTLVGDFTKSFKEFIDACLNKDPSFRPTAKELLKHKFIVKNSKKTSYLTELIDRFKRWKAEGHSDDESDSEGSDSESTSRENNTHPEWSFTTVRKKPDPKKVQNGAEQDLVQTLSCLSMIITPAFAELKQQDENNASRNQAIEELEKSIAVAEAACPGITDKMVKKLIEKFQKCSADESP
Sequence of Ephrin type-A receptor 4 (Homo sapiens) (P54764 whole entry, the tested form may be a part): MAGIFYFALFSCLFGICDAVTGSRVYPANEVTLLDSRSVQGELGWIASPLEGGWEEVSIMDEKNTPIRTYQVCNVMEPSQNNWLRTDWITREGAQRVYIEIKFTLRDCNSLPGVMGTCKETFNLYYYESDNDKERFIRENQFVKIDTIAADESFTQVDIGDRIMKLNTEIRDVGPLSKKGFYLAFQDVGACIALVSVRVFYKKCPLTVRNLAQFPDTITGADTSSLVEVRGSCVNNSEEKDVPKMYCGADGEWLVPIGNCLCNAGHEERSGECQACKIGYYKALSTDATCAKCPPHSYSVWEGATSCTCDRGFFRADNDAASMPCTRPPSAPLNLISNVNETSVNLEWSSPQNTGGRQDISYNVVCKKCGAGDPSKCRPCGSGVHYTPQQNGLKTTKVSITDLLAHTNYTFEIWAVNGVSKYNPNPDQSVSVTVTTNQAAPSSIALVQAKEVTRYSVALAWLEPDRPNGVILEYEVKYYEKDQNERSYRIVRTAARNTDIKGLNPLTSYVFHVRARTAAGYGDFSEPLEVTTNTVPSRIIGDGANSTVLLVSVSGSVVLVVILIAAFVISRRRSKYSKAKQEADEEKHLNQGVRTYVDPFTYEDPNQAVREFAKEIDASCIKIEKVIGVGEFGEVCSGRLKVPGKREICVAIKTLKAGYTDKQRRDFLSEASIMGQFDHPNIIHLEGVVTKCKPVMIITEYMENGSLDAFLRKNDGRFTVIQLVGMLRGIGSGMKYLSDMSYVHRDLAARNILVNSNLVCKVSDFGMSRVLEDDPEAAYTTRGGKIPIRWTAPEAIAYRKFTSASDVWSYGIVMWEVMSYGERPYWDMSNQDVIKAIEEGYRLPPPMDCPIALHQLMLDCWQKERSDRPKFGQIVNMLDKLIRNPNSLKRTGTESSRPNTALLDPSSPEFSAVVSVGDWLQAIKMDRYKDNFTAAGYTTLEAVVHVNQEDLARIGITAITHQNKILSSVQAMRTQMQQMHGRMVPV
Sequence of Dual specificity protein kinase TTK (Homo sapiens) (P33981 whole entry, the tested form may be a part): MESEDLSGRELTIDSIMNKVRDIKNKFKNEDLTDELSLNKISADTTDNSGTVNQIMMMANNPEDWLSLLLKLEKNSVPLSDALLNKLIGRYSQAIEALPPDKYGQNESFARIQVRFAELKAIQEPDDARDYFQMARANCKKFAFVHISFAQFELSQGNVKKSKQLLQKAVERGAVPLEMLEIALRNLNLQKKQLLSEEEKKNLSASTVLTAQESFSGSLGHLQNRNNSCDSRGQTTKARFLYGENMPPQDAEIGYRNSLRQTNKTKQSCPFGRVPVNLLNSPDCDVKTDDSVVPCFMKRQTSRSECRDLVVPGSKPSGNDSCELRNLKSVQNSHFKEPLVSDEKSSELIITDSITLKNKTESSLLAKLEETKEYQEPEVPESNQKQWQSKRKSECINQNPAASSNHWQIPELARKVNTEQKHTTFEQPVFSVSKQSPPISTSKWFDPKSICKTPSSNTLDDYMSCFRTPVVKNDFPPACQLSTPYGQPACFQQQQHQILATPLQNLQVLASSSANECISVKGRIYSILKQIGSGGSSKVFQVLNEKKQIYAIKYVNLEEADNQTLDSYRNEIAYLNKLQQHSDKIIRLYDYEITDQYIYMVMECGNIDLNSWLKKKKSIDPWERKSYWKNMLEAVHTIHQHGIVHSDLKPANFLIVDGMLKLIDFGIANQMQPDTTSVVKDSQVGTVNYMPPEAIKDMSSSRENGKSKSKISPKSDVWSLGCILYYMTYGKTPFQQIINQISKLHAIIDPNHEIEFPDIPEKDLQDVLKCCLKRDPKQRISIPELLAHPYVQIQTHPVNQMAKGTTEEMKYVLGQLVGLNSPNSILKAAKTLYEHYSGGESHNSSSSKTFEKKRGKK

`Cc1cc(=O)c2c(O)cc(O)c([C@H]3CCN(C)C[C@H]3O)c2o1` [ROHITUKINE] gave an Activity [1] of 42%, an Activity [2] of 81% and an Activity [3] of 39%. For the same molecule, the Activity [4] was 88%, the Activity [5] was 87% and the Activity [6] was 59%. For the same molecule, the Activity [7] was 113%, the pKa [8] was 5.83 and the Activity [9] was 76%. The Activity [10] was 63%, the Stability [11] was “Stable” and the GI50 [12] was 21 µM. It also gave an Activity [13] of 40%, an Activity [14] of 56% and an Activity [15] of 55%. It also gave an Activity [16] of 82%, a GI50 [17] of 23 µM and an Activity [18] of 85%. For the same molecule, the Activity [19] was 16%, the Activity [20] was 56% and the Activity [21] was 79%. It also gave a logD at 20 min [22] of -0.55, an Activity [23] of 68% and an Activity [24] of 53%. The Activity [25] was 88%, the Activity [26] was 100% and the Activity [27] was 83%. The Activity [28] was 49%, the Activity [29] was 76% and the Activity [30] was 48%. It also gave a GI50 [31] of 19 µM.

— ChEMBL document CHEMBL3826966, “A chromatography-free isolation of rohitukine from leaves of Dysoxylum binectariferum: Evaluation for in vitro cytotoxicity, Cdk inhibition and physicochemical properties” (Bioorg Med Chem Lett, 2016)
